Measured values published in the NIST ThermoML archive (doi:10.1021/acs.jced.7b00483).

Assay: molar heat capacity at constant pressure; mn = molality of the nth substance listed, in mol/kg
Settings: 100 kPa, Liquid, Flow calorimetry

[Cl][Cu][Cl] [copper chloride] + O
molar heat capacity at constant pressure [J/K/mol]
Settings | 298.15 K | 303.15 K | 313.15 K | 323.15 K | 333.15 K | 343.15 K | 353.15 K | 363.15 K
m1 = 0.2971 | 74.06 | 74.34 | 74.86 | 75.29 | 75.6 | 75.85 | 75.98 | 76.05
m1 = 0.5433 | 73.82 | 74.14 | 74.68 | 75.1 | 75.41 | 75.6 | 75.69 | 75.68
m1 = 0.7083 | 73.51 | 73.84 | 74.42 | 74.85 | 75.16 | 75.34 | 75.34 | 75.3
m1 = 1.018 | 73.01 | 73.37 | 74 | 74.48 | 74.86 | 75.1 | 75.24 | 75.22
m1 = 1.448 | 72.53 | 72.93 | 73.62 | 74.19 | 74.61 | 74.9 | 75.05 | 75.05
m1 = 1.899 | 72.05 | 72.47 | 73.19 | 73.8 | 74.24 | 74.59 | 74.74 | 74.78
m1 = 2.012 | 72.27 | 72.71 | 73.51 | 74.13 | 74.61 | 74.94 | 75.12 | 75.12
m1 = 2.424 | 72.23 | 72.74 | 73.63 | 74.38 | 74.96 | 75.37 | 75.64 | 75.73
m1 = 2.954 | 72.36 | 72.91 | 73.85 | 74.59 | 75.16 | 75.52 | 75.71 | 75.71
m1 = 3.454 | 72.47 | 73.05 | 74.06 | 74.93 | 75.63 | 76.15 | 76.52 | 76.67
m1 = 4.036 | 72.69 | 73.32 | 74.4 | 75.31 | 76.01 | 76.5 | 76.79 | 76.89
m1 = 4.452 | 72.71 | 73.37 | 74.54 | 75.48 | 76.17 | 76.62 | 76.81 | 76.78

[Cl][Ni][Cl] [nickel chloride (NiCl2)] + O
molar heat capacity at constant pressure [J/K/mol]
Settings | 298.15 K | 303.15 K | 313.15 K | 323.15 K | 333.15 K | 343.15 K | 353.15 K | 363.15 K
m1 = 0.1432 | 74.53 | 74.56 | 74.64 | 74.73 | 74.84 | 74.97 | 75.09 | 75.24
m1 = 0.3571 | 73.64 | 73.75 | 73.98 | 74.17 | 74.3 | 74.41 | 74.48 | 74.5
m1 = 0.7035 | 72.08 | 72.41 | 72.91 | 73.42 | 73.73 | 73.92 | 73.96 | 73.88
m1 = 0.9968 | 70.92 | 71.28 | 71.88 | 72.38 | 72.74 | 72.98 | 73.12 | 73.12
m1 = 1.24 | 70.61 | 70.99 | 71.67 | 72.22 | 72.63 | 72.92 | 73.06 | 73.08
m1 = 1.53 | 70.09 | 70.49 | 71.18 | 71.73 | 72.15 | 72.44 | 72.59 | 72.59
m1 = 1.874 | 69.74 | 70.16 | 70.89 | 71.5 | 71.93 | 72.23 | 72.41 | 72.45
m1 = 2.241 | 69.49 | 69.96 | 70.74 | 71.39 | 71.88 | 72.2 | 72.37 | 72.4
m1 = 2.608 | 69.48 | 69.99 | 70.89 | 71.63 | 72.2 | 72.64 | 72.89 | 72.98
m1 = 3.614 | 69.27 | 69.86 | 70.88 | 71.73 | 72.42 | 72.94 | 73.29 | 73.49
m1 = 4.102 | 69.42 | 70.04 | 71.12 | 72.02 | 72.69 | 73.18 | 73.48 | 73.56
